Where “and” joins values, the source holds several entries; their conditions need not be identical. Identical values can stand only once. Toxic doses and inconclusive results are not listed. How the source made its calls: active means survival T/C of 150% or more; inactive means T/C below 125% in these data.
System: P388 leukemia ip, CD2F1 mice, survival T/C
Assay: NCI In Vivo Anticancer Drug Screen. Data for tumor model P388 Leukemia (intraperitoneal) in CD2F1 (CDF1) mice
Details: endpoint: median survival time, higher = longer survival
How it was run: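 Mice carrying the transplanted tumor received test compound or vehicle. Survival was recorded in each group, and the value is the treated-group measurement divided by that of the vehicle-treated control group.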

[1] = dose: 50.0 mg/kg/injection, schedule: Q01DX009 (ip), vehicle: Klucel (hydroxypropylcellulose) (HPC)
[2] = dose: 100.0 mg/kg/injection, schedule: Q01DX009 (ip), vehicle: Klucel (hydroxypropylcellulose) (HPC)
[3] = dose: 50.0 mg/kg/injection, schedule: Q01DX009 (ip), vehicle: saline
[4] = dose: 50.0 mg/kg/injection, schedule: Q01DX009 (ip), vehicle: saline with Tween-80
[5] = dose: 100.0 mg/kg/injection, schedule: Q01DX009 (ip), vehicle: saline with Tween-80
[6] = dose: 60.0 mg/kg/injection, schedule: Q01DX005 (ip), vehicle: Klucel (hydroxypropylcellulose) (HPC)
[7] = dose: 50.0 mg/kg/injection, schedule: Q01DX009 (ip), vehicle: suspension in saline
[8] = dose: 12.5 mg/kg/injection, schedule: Q01DX009 (ip), vehicle: saline
[9] = dose: 25.0 mg/kg/injection, schedule: Q01DX009 (ip), vehicle: saline
[10] = dose: 60.0 mg/kg/injection, schedule: Q01DX005 (ip), vehicle: saline with Tween-80
[11] = dose: 120.0 mg/kg/injection, schedule: Q01DX005 (ip), vehicle: saline with Tween-80
[12] = dose: 240.0 mg/kg/injection, schedule: Q01DX005 (ip), vehicle: saline with Tween-80
[13] = dose: 120.0 mg/kg/injection, schedule: Q01DX005 (ip), vehicle: Klucel (hydroxypropylcellulose) (HPC)
[14] = dose: 240.0 mg/kg/injection, schedule: Q01DX005 (ip), vehicle: Klucel (hydroxypropylcellulose) (HPC)
[15] = dose: 50.0 mg/kg/injection, schedule: Q01DX005 (ip), vehicle: saline with Tween-80
[16] = dose: 100.0 mg/kg/injection, schedule: Q01DX005 (ip), vehicle: saline with Tween-80

Measured: T/C

O=Cc1ccc(S(=O)(=O)F)cc1
inactive: [1] 99 % of control | [2] 97 % of control | dose: 200.0 mg/kg/injection, schedule: Q01DX009 (ip), vehicle: Klucel (hydroxypropylcellulose) (HPC) 93 % of control

O=c1[nH]c(=S)ccn1C1OC(CO)C(O)C1O (stereo not drawn)
inactive: [3] 97 % of control | dose: 100.0 mg/kg/injection, schedule: Q01DX009 (ip), vehicle: saline 101 % of control | dose: 200.0 mg/kg/injection, schedule: Q01DX009 (ip), vehicle: saline 93 % of control

CC(=O)C1CC2C=CC1N(C1=CC(=O)CC(C)(C)C1)C2=O (stereo not drawn)
inactive: [4] 108 % of control | [5] 107 % of control | dose: 200.0 mg/kg/injection, schedule: Q01DX009 (ip), vehicle: saline with Tween-80 100 % of control

O=P1(NNc2ncccn2)SC(NN=C2CCCCC2)=NC12CCCCC2 (stereo not drawn)
inactive: dose: 7.5 mg/kg/injection, schedule: Q01DX005 (ip), vehicle: Klucel (hydroxypropylcellulose) (HPC) 100 % of control | dose: 15.0 mg/kg/injection, schedule: Q01DX005 (ip), vehicle: Klucel (hydroxypropylcellulose) (HPC) 95 % of control | dose: 30.0 mg/kg/injection, schedule: Q01DX005 (ip), vehicle: Klucel (hydroxypropylcellulose) (HPC) 95 % of control | [6] 100 % of control

CCOc1cc(=O)cc2n(-c3cc(OCC)c(OC(C)=O)c(OCC)c3)c3ccccc3nc1-2
inactive: [7] 99 % of control | dose: 100.0 mg/kg/injection, schedule: Q01DX009 (ip), vehicle: suspension in saline 100 % of control | dose: 200.0 mg/kg/injection, schedule: Q01DX009 (ip), vehicle: suspension in saline 99 % of control

CN(C/C=C/CN(C)C(=S)Nc1ccccc1)C(=S)Nc1ccccc1
inactive: [8] 95 % of control | [9] 106 % of control | dose: 25.0 mg/kg/injection, schedule: Q01DX009 (ip), vehicle: suspension in saline 91 % of control | [3] 90 % of control | [7] 86 % of control and 87 % of control

CCOc1cccc2c1NC(C)=C(C(=O)c1ccccc1)S2
inactive: [10] 100 % of control | [11] 95 % of control | [12] 91 % of control

C[S+](C)c1ccc(Cl)cc1
inactive: [8] 95 % of control | [9] 91 % of control | [3] 108 % of control

ClC1CC[N-]CC1.ClC1CC[N-]CC1.[Cl][Pt+2]([Cl])([Cl])[Cl]
active: dose: 6.25 mg/kg/injection, schedule: Q01DX009 (ip), vehicle: Klucel (hydroxypropylcellulose) (HPC) 166 % of control | dose: 12.5 mg/kg/injection, schedule: Q01DX009 (ip), vehicle: Klucel (hydroxypropylcellulose) (HPC) 192 % of control | [8] 153 % of control | dose: 25.0 mg/kg/injection, schedule: Q01DX009 (ip), vehicle: Klucel (hydroxypropylcellulose) (HPC) 245 % of control | [9] 172 % of control
inactive: dose: 1.56 mg/kg/injection, schedule: Q01DX009 (ip), vehicle: saline 100 % of control | dose: 3.13 mg/kg/injection, schedule: Q01DX009 (ip), vehicle: saline 108 % of control | [1] 113 % of control

O=C1C(c2ccccc2)=C(c2ccccc2)C2(c3ccccc3)Oc3c(Cl)c(Cl)c(Cl)c(Cl)c3OC12c1ccccc1 (stereo not drawn)
inactive: [4] 89 % of control | [5] 93 % of control

COc1cc2c(cc1Cc1cc(OC)c(OC)c(OC)c1)OCO2
inactive: [6] 98 % of control | [13] 100 % of control | [14] 98 % of control

CC(=O)NCC1CC2(Cl)C(Cl)=C(Cl)C1(Cl)C2(Cl)Cl (stereo not drawn)
inactive: dose: 50.0 mg/kg/injection, schedule: Q01DX005 (ip), vehicle: Klucel (hydroxypropylcellulose) (HPC) 101 % of control | dose: 100.0 mg/kg/injection, schedule: Q01DX005 (ip), vehicle: Klucel (hydroxypropylcellulose) (HPC) 106 % of control | dose: 200.0 mg/kg/injection, schedule: Q01DX005 (ip), vehicle: Klucel (hydroxypropylcellulose) (HPC) 106 % of control

N#CNC1=NCOCN1
inactive: [10] 100 % of control | [11] 100 % of control

C1CC[N+]2(CC1)CCCCC2
inactive: dose: 6.25 mg/kg/injection, schedule: Q01DX009 (ip), vehicle: saline 100 % of control | [8] 100 % of control | [9] 108 % of control | [3] 98 % of control

Cc1ncc(CO)c(/C=N/NC(=O)c2ccncc2)c1O
inactive: [6] 102 % of control | [13] 102 % of control | [14] 101 % of control

C=CCC(C(=C)Sc1ccccc1)S(=O)(=O)c1ccccc1 (stereo not drawn)
inactive: dose: 100.0 mg/kg/injection, schedule: Q04DX002 (ip), vehicle: saline with Tween-80 115 % of control | dose: 200.0 mg/kg/injection, schedule: Q04DX002 (ip), vehicle: saline with Tween-80 109 % of control | dose: 400.0 mg/kg/injection, schedule: Q04DX002 (ip), vehicle: saline with Tween-80 105 % of control

COc1ccc2c(c1)CCC1C2CCC2(C)C1CCC2(C)N(C)C (stereo not drawn)
inactive: dose: 6.25 mg/kg/injection, schedule: Q01DX005 (ip), vehicle: Klucel (hydroxypropylcellulose) (HPC) 102 % of control | dose: 12.5 mg/kg/injection, schedule: Q01DX005 (ip), vehicle: Klucel (hydroxypropylcellulose) (HPC) 102 % of control

Nc1nc(=O)nc2[nH]c3c4cccc5cccc(c3nc12)c54
inactive: [10] 96 % of control | dose: 100.0 mg/kg/injection, schedule: Q04DX002 (ip), vehicle: Klucel (hydroxypropylcellulose) (HPC) 100 % of control | [11] 93 % of control | dose: 200.0 mg/kg/injection, schedule: Q04DX002 (ip), vehicle: Klucel (hydroxypropylcellulose) (HPC) 100 % of control | [12] 100 % of control | dose: 400.0 mg/kg/injection, schedule: Q04DX002 (ip), vehicle: Klucel (hydroxypropylcellulose) (HPC) 101 % of control

O=C(CCl)Nc1nc(NC(=O)CCl)nc(NC(=O)CCl)n1
inactive: dose: 100.0 mg/kg/injection, schedule: Q04DX002 (ip), vehicle: saline 96 % of control | dose: 200.0 mg/kg/injection, schedule: Q04DX002 (ip), vehicle: saline 96 % of control | dose: 400.0 mg/kg/injection, schedule: Q04DX002 (ip), vehicle: saline 95 % of control

CC(C)(C)CC(C)(C)NC(=S)NC1C2CC3CC(C2)CC1C3 (stereo not drawn)
inactive: [1] 89 % of control | [2] 90 % of control

Nc1nc2[nH]c(=O)[nH]c(=O)c2[nH]1
inactive: [15] 100 % of control | [16] 102 % of control | dose: 200.0 mg/kg/injection, schedule: Q01DX005 (ip), vehicle: saline with Tween-80 109 % of control

CC(=O)Nc1cc2cc(NS(=O)(=O)c3cc(C(F)(F)F)cc(C(F)(F)F)c3)ccc2oc1=O
inactive: dose: 1.5 mg/kg/injection, schedule: Q01DX005 (ip), vehicle: Klucel + Tween-80 94 % of control | dose: 3.0 mg/kg/injection, schedule: Q01DX005 (ip), vehicle: Klucel + Tween-80 99 % of control and 91 % of control | dose: 6.0 mg/kg/injection, schedule: Q01DX005 (ip), vehicle: Klucel + Tween-80 96 % of control | dose: 12.0 mg/kg/injection, schedule: Q01DX005 (ip), vehicle: Klucel + Tween-80 91 % of control | dose: 12.5 mg/kg/injection, schedule: Q01DX005 (ip), vehicle: Klucel + Tween-80 87 % of control | dose: 50.0 mg/kg/injection, schedule: Q01DX005 (ip), vehicle: Klucel + Tween-80 95 % of control

Cc1nc(C)c(Cl)c(Cc2ncnc3ccccc23)n1
inactive: dose: 25.0 mg/kg/injection, schedule: Q01DX005 (ip), vehicle: saline with Tween-80 106 % of control | [15] 96 % of control | [16] 102 % of control

CCOc1cccc2c1C(=O)c1c(OCC)c3c(c(OCC)c1C2=O)CC(O)(C(C)=O)CC3O (stereo not drawn)
inactive: dose: 1.56 mg/kg/injection, schedule: Q01DX009 (ip), vehicle: other 99 % of control | dose: 3.13 mg/kg/injection, schedule: Q01DX009 (ip), vehicle: other 102 % of control | dose: 6.25 mg/kg/injection, schedule: Q01DX009 (ip), vehicle: other 93 % of control | dose: 12.5 mg/kg/injection, schedule: Q01DX009 (ip), vehicle: other 96 % of control | dose: 25.0 mg/kg/injection, schedule: Q01DX009 (ip), vehicle: other 90 % of control

COC1=C(OC)C(=O)C(C)(CC=C(C)C)CC1=O (stereo not drawn)
inactive: dose: 13.0 mg/kg/injection, schedule: Q01DX009 (ip), vehicle: saline + alcohol 113 % of control | dose: 25.0 mg/kg/injection, schedule: Q01DX009 (ip), vehicle: saline + alcohol 113 % of control | dose: 50.0 mg/kg/injection, schedule: Q01DX009 (ip), vehicle: saline + alcohol 103 % of control
